{"source": "patent US9434688B2", "about": "“Indole derivatives as selective androgen receptor modulators (SARMS)” (Janssen Pharmaceutica, NV, priority 2004, dated 2016)", "key": {"[1]": {"system": "castrated male Sprague Dawley rats", "assay": "Ventral Prostate and Seminal Vesicle Weight In Vivo Assay", "design": "species or system rat; key: active: non weight adjusted prostate weight was ≦40 mg or the % Inhibition prostate weight, body weight adjusted was ≧40% @ 2 mg/day dosage; inactive: they did not meet the specified criteria defined above", "conditions": "immature castrated male rats, once daily for five days, with testosterone propionate 2 mg/kg subcutaneously", "method": "Immature (approximately 50 g) castrated male Sprague Dawley rats (Charles River) were treated once daily for five days with test compound (usually given orally at 40 mg/kg in a volume of 0.3 mL, in 30% cyclodextrin or 0.5% methylcellulose vehicle) and with testosterone propionate (given subcutaneously by injection at the nape of the neck at 2 mg/kg, in a volume of 0.1 mL in sesame oil). On the sixth day, the rats were euthanized by asphyxiation in carbon dioxide. Ventral prostates and seminal vesicles were removed and their wet weights determined.\nA test compound was said to be “active” if the non weight adjusted prostate weight was ≦40 mg or the % Inhibition prostate weight, body weight adjusted was ≧40% @ 2 mg/day dosage."}, "androgen receptor": {"biological_target": "T1, androgen receptor (Rattus norvegicus, UniProt P15207)", "T1 sequence (P15207 1-902)": "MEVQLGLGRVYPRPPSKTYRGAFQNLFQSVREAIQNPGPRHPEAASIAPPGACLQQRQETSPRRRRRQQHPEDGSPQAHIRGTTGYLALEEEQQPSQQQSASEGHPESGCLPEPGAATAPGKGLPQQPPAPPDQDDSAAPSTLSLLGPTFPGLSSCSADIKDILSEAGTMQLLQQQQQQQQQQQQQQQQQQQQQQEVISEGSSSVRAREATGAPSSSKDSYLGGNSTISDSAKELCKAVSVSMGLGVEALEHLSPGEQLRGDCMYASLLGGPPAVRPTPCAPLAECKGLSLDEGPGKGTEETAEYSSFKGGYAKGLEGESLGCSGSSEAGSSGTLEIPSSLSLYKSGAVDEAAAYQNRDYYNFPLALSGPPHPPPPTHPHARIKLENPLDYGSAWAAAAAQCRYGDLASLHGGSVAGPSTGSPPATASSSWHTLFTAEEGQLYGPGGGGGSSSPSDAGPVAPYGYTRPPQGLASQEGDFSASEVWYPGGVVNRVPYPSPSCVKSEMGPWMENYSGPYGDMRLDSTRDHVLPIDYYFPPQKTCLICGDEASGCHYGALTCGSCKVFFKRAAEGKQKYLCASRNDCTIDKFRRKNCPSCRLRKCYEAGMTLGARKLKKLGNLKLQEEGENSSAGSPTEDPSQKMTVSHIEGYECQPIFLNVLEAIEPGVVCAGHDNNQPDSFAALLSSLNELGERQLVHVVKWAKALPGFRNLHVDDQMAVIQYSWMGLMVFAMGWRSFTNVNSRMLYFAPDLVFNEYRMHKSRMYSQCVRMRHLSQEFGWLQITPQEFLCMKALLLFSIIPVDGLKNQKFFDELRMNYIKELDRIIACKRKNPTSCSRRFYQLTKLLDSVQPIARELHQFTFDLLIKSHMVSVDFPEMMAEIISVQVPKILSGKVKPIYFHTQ", "assay": "L929 Androgen Receptor Functional Assay, Adenovirus Transduction", "assay_type": "cell-based", "design": "expressed in transfected cells; host or cells: L929 cells transduced with adenovirus AdEasy+rAR", "conditions": "concentration of 3000 nM, 3 µM", "method": "L929 cells were plated in 96-well plates at 20,000 cells per well, in DMEM/F12 (GIBCO) containing 10% (v/v) charcoal-treated fetal bovine serum (Hyclone) and lacking phenol red. The plates were then incubated overnight at 37° C. in 5% (v/v) humidified CO2.\nTest compound dilutions were prepared in 100% (v/v) DMSO, if necessary. Each dilution was made to 1250× the final desired assay concentration.\nFirst, 2 mL of DMEM/F12 lacking phenol red was pipetted into the wells of a 2-mL 96-well assay block. Next, 4 μL of the 1250× test compound dilutions were pipetted into each well of the assay block. The mixtures within the well were then carefully mixed by pipette.\nIn a 15 mL or 50 mL sterile centrifuge tube, a 2.5 nM (2.5×) dilution of R1881 (methyl-trienolone) in DMEM/F12 lacking phenol red was prepared.\nIn a second 15 mL or 50 mL centrifuge tube a solution containing an equal volume of DMEM to the first and an equal volume of 100% (v/v) DMSO to the volume of R1881 used in the first tube was prepared.\nIn a 15 mL or 50 mL sterile centrifuge tube, a dilution in DMEM/F12 of the adenovirus AdEasy+rAR at an moi of 1:500 per well was prepared.\nThe medium was removed from the 96-well plates by inversion and dried, inverted, very briefly. As soon as possible after medium removal, 40 μL of the diluted unlabeled test compound was added to each well, in duplicate. To each well designated for antagonist testing was added 40 μL of the 2.5 nM R1881 dilution to the wells for antagonist testing. To each well designated for agonist testing was added 40 μL of the DMSO dilution. Then 20 μL of the diluted adenovirus were added to all wells. The plates were incubated for 48 hours at 37° C. in 5% (v/v) humidified CO2.\nTo each well was added 100 μL of Steady-Glo luciferase assay substrate (Promega) and the plates were placed on a rotary shaker for 1 min. The plates were then incubated at room temperature in the dark for one hour. The contents of each well were then transferred to a white microtiter plate (Packard) and read on a Luminoskan Ascent (Thermo Lab Systems).\nL929 AR percent activity was determined by testing dilutions of the test compound using a concentration of 3000 nM unless otherwise noted. L929 percent inhibition was determined by testing dilutions of the test compound using a concentration of 3000 nM. […] Luciferase activity per well were measured and EC50s and IC50s determined by linear regression."}}, "note": "Several values for one entry are separate records, joined by “and”; a condition that tells them apart may be missing. Equal values may be shown once."}
{"compound": "CCSCC(O)c1cc2cc([N+](=O)[O-])c(C(F)(F)F)cc2[nH]1", "note": "(racemic) [compound 158]", "values": [{"measurement": "active / inactive: inhibition of testosterone-enhanced prostate weight", "setting": "[1]", "value": "inactive"}, {"measurement": "% Activity", "setting": "androgen receptor; L929 agonist testing", "value": "3% and 2%"}, {"measurement": "% Inhibition", "setting": "androgen receptor; L929 antagonist testing with R1881", "value": "21% and 29%"}]}
